Values joined by “and” are separate entries in the source; they are usually repeats but may differ in a detail not shown here. Equal entries are not always repeated.
Columns and labels:
[1] = system: Conscious Ocular Hypertensive Cynomolgus Monkey Eyes; experiment: IOP response in conscious ocular hypertensive cynomolgus monkey eyes; assay type: in vivo; details: for % Change in IOP (mmHg): topical ocular 300 μg, mean ± SEM; for modulation of IOP (in words): topically administered 300 μg, conscious cynomolgus monkeys
Method: Intraocular pressure (IOP) is determined with an Alcon Pneumatonometer (Alcon Laboratories, Inc., Fort Worth, Tex.) after light corneal anesthesia with 0.1% proparacaine. Right eyes are hypertensive as a result of laser trabeculoplasty. After a baseline IOP measurement, test compound is instilled in the right eyes only of 8-10 cynomolgus monkeys. Vehicle is instilled in the right eyes of 5-6 additional animals. […] IOP measurements are also taken on left eyes (normotensive and untreated) at each of these time points. The percent change in IOP from baseline is determined for each animal for every IOP measurement (Sharif et al. J. Ocular Pharmacol. Ther. 17: 305-317, 2001; May et al., J Pharmacol Exp Ther. 306: 301-309, 2003; Sharif et al. Invest. Opthalmol. Vis. Res. 47: 4001-4010, 2006). Group mean and standard error of the mean (SEM) are calculated for each time point. […] In cases where the compound of invention has poor ocular bioavailability, the compound may need to be administered intracamerally or intravitreally in order to observe the IOP-lowering efficacy.

[2] = molecular target: T1, BK B2-Receptor in h-NPE cells (Homo sapiens, UniProt P30411); experiment: Antagonism of BK-induced [Ca^2+]i mobilization in immortalized h-NPE cells; assay type: cell-based; details: read-out: Antagonist Potency (Ki; nM) vs BK (10 nM) in [Ca^2+]i Mobilization Assay, mean ± SEM or individual experiments
T1 construct: we discovered and pharmacologically characterized B2-receptor proteins in h-TM, h-CM and h-NPE cells; endogenous in cells; host or cells: immortalized human non-pigmented ciliary epithelial (h-NPE) cells
T1 sequence (P30411 1-391): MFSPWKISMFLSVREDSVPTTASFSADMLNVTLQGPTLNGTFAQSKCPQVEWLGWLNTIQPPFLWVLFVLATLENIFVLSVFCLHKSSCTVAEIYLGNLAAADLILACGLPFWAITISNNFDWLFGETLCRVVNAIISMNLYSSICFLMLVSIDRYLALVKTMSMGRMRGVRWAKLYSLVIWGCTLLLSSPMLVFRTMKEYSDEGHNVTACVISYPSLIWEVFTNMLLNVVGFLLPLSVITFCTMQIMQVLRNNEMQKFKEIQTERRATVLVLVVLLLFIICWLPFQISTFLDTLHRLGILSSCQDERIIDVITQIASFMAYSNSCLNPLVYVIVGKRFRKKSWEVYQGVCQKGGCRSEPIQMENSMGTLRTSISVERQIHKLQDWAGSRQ
Method: (§1) Opthalmol. Vis. Res. 47: 4001-4019, 2006; Sharif et al., J. Ocular Pharmacol. Ther. 22: 291-309, 2006).
(§2) On the day of the experiment, one vial of FLIPR Calcium Assay Kit dye is re-suspended in 50 mL of a FLIPR buffer consisting of Hank's Balanced Salt Solution (HBSS), 20 mM HEPES, and 2.5 mM probenecid, pH 7.4. Cells are loaded with the calcium-sensitive dye by addition of an equal volume (50 μL) to each well of the 96-well plate and incubated with dye for 1 h at 23° C. After this time, the test compound plate and cell plate are placed in the FLIPR instrument. At the beginning of an experimental run, a signal test is performed to check the basal fluorescence signal from the dye-loaded cells and the uniformity of the signal across the plate. The basal fluorescence is adjusted between 8000-12000 counts by modifying the exposure time, the camera F-stop, or the laser power. Instrument settings for a typical assay are the following: laser power 0.3-0.6 W, camera F-stop F/2, and exposure time 0.4 sec.
(§3) Fluorescence data are collected in real-time at 1.0 sec intervals for the first 60 secs and at 6.0 sec intervals for an additional 120 secs. […] The data are then analyzed using an automated, iterative, sigmoidal curve-fitting computer program to obtain the potency and intrinsic activities of the test agents as previously described (Sharif et al. J. Pharmacol. Exp. Ther. 286: 1094-1102, 1998; Sharif et al. Invest. Opthalmol. Vis. Sci. 39:2562-2571, 1998; Kelly et al. J. Pharmacol. Exp. Ther. 304: 238-245, 2003). The sources of materials and reagents for such assays can be found in the references cited above.

[3] = molecular target: T2, BK B2-Receptor in h-CM cells (Homo sapiens, UniProt P30411); experiment: Antagonism of BK-induced [Ca^2+]i mobilization in h-CM cells; assay type: cell-based; details: read-out: Antagonist Potency (Ki; nM) vs BK (10 nM) in [Ca^2+]i Mobilization Assay, mean ± SEM or individual experiments
T2 construct: we discovered and pharmacologically characterized B2-receptor proteins in h-TM, h-CM and h-NPE cells; endogenous in cells; host or cells: primary human ciliary muscle (h-CM) cells
T2 sequence (P30411 1-391): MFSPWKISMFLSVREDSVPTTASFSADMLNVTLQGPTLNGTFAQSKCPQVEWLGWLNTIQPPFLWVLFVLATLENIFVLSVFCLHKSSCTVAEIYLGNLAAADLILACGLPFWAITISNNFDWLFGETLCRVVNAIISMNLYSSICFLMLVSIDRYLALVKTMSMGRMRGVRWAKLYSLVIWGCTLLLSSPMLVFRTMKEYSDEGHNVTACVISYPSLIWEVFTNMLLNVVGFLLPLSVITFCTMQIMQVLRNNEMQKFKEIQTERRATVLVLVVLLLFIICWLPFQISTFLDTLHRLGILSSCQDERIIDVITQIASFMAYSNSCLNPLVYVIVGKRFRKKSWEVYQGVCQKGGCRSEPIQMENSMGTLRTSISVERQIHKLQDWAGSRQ
Method: as §1, §2, §3

[4] = molecular target: T3, B2-receptors in h-NPE cells (Homo sapiens, UniProt P30411); experiment: BK- and BK-related peptide-induced [Ca^2+]i mobilization in h-NPE cells (agonist potency); assay type: cell-based; details: BK = 100%, read-out: Intrinsic Activity (Emax, % max relative to BK)
T3 construct: we discovered and pharmacologically characterized B2-receptor proteins in h-TM, h-CM and h-NPE cells; endogenous in cells; host or cells: immortalized human non-pigmented ciliary epithelial (h-NPE) cells
T3 sequence (P30411 1-391): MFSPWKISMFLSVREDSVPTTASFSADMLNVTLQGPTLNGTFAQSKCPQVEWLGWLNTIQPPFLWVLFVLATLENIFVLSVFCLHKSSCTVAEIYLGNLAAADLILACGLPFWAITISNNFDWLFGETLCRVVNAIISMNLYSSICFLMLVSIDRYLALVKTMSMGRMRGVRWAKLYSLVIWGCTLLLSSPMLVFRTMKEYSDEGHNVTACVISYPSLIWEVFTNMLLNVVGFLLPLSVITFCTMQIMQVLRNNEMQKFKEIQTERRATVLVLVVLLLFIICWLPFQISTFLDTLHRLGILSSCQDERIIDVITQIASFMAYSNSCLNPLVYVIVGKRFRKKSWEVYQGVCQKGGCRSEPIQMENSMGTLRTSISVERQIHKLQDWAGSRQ

rabbit IOP = experiment: Acute IOP response in rabbit eyes, intravitreal administration; assay type: in vivo; details: 50 μg, relative to vehicle alone
Method: IOP is determined with an applanation pneumatonometer after light corneal anesthesia with 0.1% proparacaine. After baseline IOP measurements are taken, one eye of each of 7-10 (or both eyes of 5) rabbits per compound dose is topically dosed with compound. Either the contralateral eye is dosed with vehicle or a separate group of rabbits is used for vehicle control. Subsequent IOP measurements are taken at 0.5, 1, 2, 3, and 4 hours. In cases where the compound has poor ocular bioavailability, the compound may need to be administered intracamerally or intravitreally in order to observe the IOP-lowering efficacy.
Conversely, non-peptidic BK antagonists dosed topical ocularly in the ocular hypertensive monkey eyes were ineffective at modulating IOP (see below Example 4).

B2-receptor mRNA = experiment: Microarray analysis of B2-receptor mRNA in TGFβ2-treated human TM cells; assay type: cell-based
B1-receptor mRNA = experiment: Microarray analysis of B1-receptor mRNA in TGFβ2-treated human TM cells; assay type: cell-based; details: Glaucomatous h-TM cells, control 0.99 ± 0.58

`CNC(=O)c1ccc(/C=C/C(=O)NCC(=O)N(C)c2ccc(Cl)c(COc3cccc4ccc(C)nc34)c2Cl)cc1` [FR-165649] was tested, and the “% Change in IOP (mmHg)” value ([1]; Dose 1/1 hr post-dose) was 1.0 ± 3.1%, the “% Change in IOP (mmHg)” value ([1]; Dose 1/3 hr post-dose) was 0.7 ± 3.5% and the “% Change in IOP (mmHg)” value ([1]; Dose 1/6 hr post-dose) was −6.2 ± 4.7%. The “% Change in IOP (mmHg)” value ([1]; Dose 1/24 hr post-dose) was −4.0 ± 3.2%, the “modulation of IOP (in words)” value [1] was “failed to modulate IOP” and the Ki [2] was 393 nM and 337 nM. The Ki [3] was 11 nM and 4 nM.

In the case of `CCCC[P+](CCCC)(CCCC)Cc1ccc(NC(=O)[C@H](Cc2ccc3ccccc3c2)NC(=NC2CCCCC2)NC2CCCCC2)cc1.[Cl-]` [WIN-64338], the “% Change in IOP (mmHg)” value ([1]; Dose 1/1 hr post-dose) is reported as 1.7 ± 1.6%, the “% Change in IOP (mmHg)” value ([1]; Dose 1/3 hr post-dose) is reported as −10.4 ± 2.8% and the “% Change in IOP (mmHg)” value ([1]; Dose 1/6 hr post-dose) is reported as 1.3 ± 1.3%. For the same molecule, the “modulation of IOP (in words)” value [1] was “failed to modulate IOP”.

With `N=C(N)NCCC[C@H](N)C(=O)N1CCC[C@H]1C(=O)N1CCC[C@H]1C(=O)NCC(=O)N[C@@H](Cc1ccccc1)C(=O)N[C@@H](CO)C(=O)N1CCC[C@H]1C(=O)N[C@@H](Cc1ccccc1)C(=O)O` [Des-Arg^9-BK] the Emax [4] was 70 to 77% and the “effect on rabbit IOP” value (rabbit IOP) was “not”.

B1: TGFβ2: cytokine transforming growth factor-β2 (protein, UniProt P61812 303-414, looked up)
Transforming growth factor …: ALDAAYCFRNVQDNCCLRPLYIDFKRDLGWKWIHEPKGYNANFCAGACPYLWSSDTQHSRVLSLYNTINPEASASPCCVSQDLEPLTILYYIGKTPKIEQLSNMIVKSCKCS
With B1 the “Normalized level of B2-receptor mRNA (GC-RMA, mean ± SEM)” value (B2-receptor mRNA; Glaucomatous h-TM cells, after 1.5 hr, control 0.99 ± 0.04) was 0.97 ± 0.06, the “Normalized level of B2-receptor mRNA (GC-RMA, mean ± SEM)” value (B2-receptor mRNA; Glaucomatous h-TM cells, after 16 hr, control 0.99 ± 0.04) was 0.24 ± 0.06 and the “Normalized level of B2-receptor mRNA (GC-RMA, mean ± SEM)” value (B2-receptor mRNA; Normal h-TM cells, after 1.5 hr, control 0.99 ± 0.06) was 0.68 ± 0.05. The “Normalized level of B2-receptor mRNA (GC-RMA, mean ± SEM)” value (B2-receptor mRNA; Normal h-TM cells, after 16 hr, control 0.99 ± 0.06) was 0.14 ± 0.11, the “Normalized level of B1-receptor mRNA (GC-RMA, mean ± SEM)” value (B1-receptor mRNA; after 1.5 hr) was 1.54 ± 0.09 and the “Normalized level of B1-receptor mRNA (GC-RMA, mean ± SEM)” value (B1-receptor mRNA; after 16 hr) was 0.53 ± 0.05.

— patent US8263555B2 (Alcon Research, Ltd., priority 2007, dated 2012)
